Reference: patent publication US9670217B2, “Process for preparing chlorins and their pharmaceutical uses” (UNIVERSIDADE DE COIMBRA, priority 2008, dated 2017)

Columns and labels:
Test in all cases: Cell photosensitization, filtered halogen lamp, MTT
Assay type in all cases: cell-based
[1] = test system: SKMEL 188 (human melanoma); conditions: [Luzitin-Cl] = 20 μM
Protocol: (§1) Irradiation in in vitro experiments was performed using either a halogen lamp or a laser source. In the first case, a 500 W halogen lamp was placed 50 cm from the irradiated plate to insure a homogeneous irradiation. A cooled water filter (d=35 mm) and a 600 nm cut off filter were placed between the lamp and samples. The fluence rate reaching samples was 3 mW/cm^2. The emission spectrum of the halogen lamp was recorded using a spectroradiometer IL2000 (Spectrocube), FIG. 1. In the second case, three Lynx external cavity diode lasers TEC 500 powered by PilotPC 500 Laser Controllers (Sacher Lasertechnik, Marburg, Germany) were employed. The laser energies were stable at 40 mW for the 748 nm laser, 10 mW for the 649 laser and 10 mW for the 633 laser. The laser energies were regularly measured with a Coherent LaserCheck. In some in vitro experiments, the laser light was focused on an optical fiber through a collimator in microbench, and delivered to the cells. This system reduced the 748 nm laser light to 30 mW.
The cell lines employed in halogen lamp irradiation were the MCF7 (human breast carcinoma), SKMEL 188 (human melanoma) and S91/I3 (mouse melanoma) cells. They were used both for cytotoxicity and photocytotoxicity experiments. MCF7 cells were grown supplemented with 10% fetal calf (FBS) serum, 25 units/ml of penicillin, and 25 μg/ml of streptomycin. Human melanoma cells SKMEL-188 were grown in F10 medium supplemented with 10% fetal calf serum (FCS), 100 units/ml of penicillin, and 100 μg/ml of streptomycin. I3 subline of Cloudman S91 melanoma cells were cultured in RPMI 1640 medium supplemented with 100 units/ml of penicillin, 100 μg/ml streptomycin and 5% fetal calf serum (FCS) (Gibco BRL). […]
Cytotoxicity. Cell metabolic efficiency and viability were determined by the uptake and reduction of 3-(4,5-dimethylthiazol-2-yl)-2,5-diphenyl tetrazolium bromide (MTT) to an insoluble formazan dye by cellular microsomal enzymes. […] The 96-well culture plate was shaken for 0.5 min at room temperature and immediately read for optical density at 560 nm using an ELISA reader (GENios Plus; Tecan Trading AG, Switzerland). The cell survival was expressed by the absorbance changes of the formazan salt, and survival rate was given as the percent ratio of viable treated cells vs. the number of viable untreated cells. Number of cells was determined from linear regression of a calibration curve.
Cell photosensitization. […] The values were obtained from three independent experiments and expressed as percent of cell survival with reference to control cells, which were manipulated in the same manner but without incubation with photosensitizer and without illumination.

S91 (mouse melanoma) = conditions: [Luzitin-Cl] = 20 μM
Protocol: as §1
(§2) The cell lines employed in halogen lamp irradiation were the MCF7 (human breast carcinoma), SKMEL 188 (human melanoma) and S91/I3 (mouse melanoma) cells. They were used both for cytotoxicity and photocytotoxicity experiments. MCF7 cells were grown supplemented with 10% fetal calf (FBS) serum, 25 units/ml of penicillin, and 25 μg/ml of streptomycin. Human melanoma cells SKMEL-188 were grown in F10 medium supplemented with 10% fetal calf serum (FCS), 100 units/ml of penicillin, and 100 μg/ml of streptomycin. I3 subline of Cloudman S91 melanoma cells were cultured in RPMI 1640 medium supplemented with 100 units/ml of penicillin, 100 μg/ml streptomycin and 5% fetal calf serum (FCS) (Gibco BRL). All cell lines were cultivated as monolayer in Petri dishes of 60 mm diameter and incubated at 37° C. in a humid atmosphere containing 5% CO2.
(§3) Cytotoxicity. Cell metabolic efficiency and viability were determined by the uptake and reduction of 3-(4,5-dimethylthiazol-2-yl)-2,5-diphenyl tetrazolium bromide (MTT) to an insoluble formazan dye by cellular microsomal enzymes. The cell lines were grown in RPMI medium with 10% fetal calf serum, penicillin and streptomycin. Cells were maintained in 5% CO2, 95% air and 100% humidity. For determining cytotoxicity, these cells were plated in 96-well plates at a density of 1×10^4 cells well in complete media. After 24 h, the cells were incubated with photosensitizers at different concentrations (0.25 up to 50 μM) for 18 hours at 37° C. The cells were then washed twice with PBS and incubated in growth medium at 37° C. for 24 h. Next, the medium was replaced by 100 μl of fresh medium and 20 μl of MTT, and the cells were incubated with MTT for 3 h, with a final concentration of 0.5 mg/ml. Then the culture medium was replaced with DMSO-methanol solution (1:1) to dissolve the blue formazan crystals. The 96-well culture plate was shaken for 0.5 min at room temperature and immediately read for optical density at 560 nm using an ELISA reader (GENios Plus; Tecan Trading AG, Switzerland). The cell survival was expressed by the absorbance changes of the formazan salt, and survival rate was given as the percent ratio of viable treated cells vs. the number of viable untreated cells. Number of cells was determined from linear regression of a calibration curve.
(§4) Cell photosensitization. SKMEL 188, S91 and MCF7 cells were prepared as described above. […] The cells were incubated for 12 h at 37° C. and then irradiated at a 0.53 mW cm^2 fluence rate and in doses ranging from 0.1 to 0.64 J cm^2. We recall that photosensitizer uses only ca. ⅕ of the available fluence rate of the filtered halogen lamp. The MTT test was performed 24 h after irradiation. The values were obtained from three independent experiments and expressed as percent of cell survival with reference to control cells, which were manipulated in the same manner but without incubation with photosensitizer and without illumination. […]

[2] = test system: MCF7 (human breast carcinoma)
Protocol: as §1, §2, §3, §4

[3] = [Luzitin-Cl] = 20 μM, filtered halogen lamp

## O=S(=O)(O)c1ccc(Cl)c(-c2c3nc(c(-c4cc(S(=O)(=O)O)ccc4Cl)c4ccc([nH]4)c(-c4cc(S(=O)(=O)O)ccc4Cl)c4nc(c(-c5cc(S(=O)(=O)O)ccc5Cl)c5ccc2[nH]5)CC4)CC3)c1 [Luzitin-Cl, 5,10,15,20-tetrakis(2-chloro-5-sulfonylphenyl)bacteriochlorin]
[1]
  LD50 (light dose to kill 50% of the cells): 0.1 J/cm^2
  LD90 (light dose to kill 90% of the cells): 0.32 J/cm^2
S91 (mouse melanoma)
  LD50 (light dose to kill 50% of the cells): 0.15 J/cm^2
  LD90 (light dose to kill 90% of the cells): 0.3 J/cm^2
[2]; 5 μM, filtered halogen light 0.6 J/cm^2, 12 h incubation
  cell kill: 100%
[2]; [3]
  LD50 (light dose to kill 50% of the cells): 0.08 J/cm^2
  LD90 (light dose to kill 90% of the cells): 0.25 J/cm^2
